Data as given in US20060121102A1, “Transdermal systems for the delivery of estrogens and progestins” (priority 2004, published 2006).

Assay: In vitro skin permeation (flux), modified Franz diffusion cells
Type: in vitro ADME, human
Details: as permeation enhancer, compared with other enhancers such as lauryl lactate
Experimental: In vitro skin permeation studies were conducted using modified Franz diffusion cells to determine the delivery of estrogens and progestins from various drug polymer matrices. The release liner was peeled off of the drug matrix layer. The drug matrix layer was then gently pressed onto the stratum corneum of heat separated epidermis from human cadaver skin. This skin membrane with the backing and drug matrix affixed thereto was then mounted between the two half-cells and fastened with a clamp. The receiver compartment was filled with 1% hydroxylpropylcyclodextrin in normal saline solution with 0.01% sodium azide. The temperature was maintained at 32° C. Samples were taken at preset intervals and assayed by HPLC. The flux was calculated from the slope of the cumulative amounts of the drug in the receiver compartment versus time.

CC(O)C(=O)O (stereo not shown) [lactic acid]
enhancing the transdermal flux of norelgestromin: particularly effective
